{"source": "paper PMC5944028", "about": "“Nonclinical and clinical pharmacological characterization of the potent and selective cathepsin K inhibitor MIV-711” (Journal of Translational Medicine, 2018)", "key": {"[1]": {"assay": "Human safety and tolerability, single ascending dose study", "type": "in vivo, human healthy subjects", "source_text": "Twenty-seven healthy male and female subjects (18 male and 9 female) of any ethnic origin (24 White, 1 Asian, 1 Black, 1 Black/Caribbean White), aged between 19 and 64 years, and with a body mass index (BMI) between 18.0 and 32.0 kg/m^2, were selected for this study. Inclusion criteria for enrollment followed the standard practice for first-in-man studies.\nThis was a randomized, double-blind, placebo-controlled, sequential, single-ascending dose study conducted at a single site with the objective of evaluating the safety, tolerability, pharmacokinetics (PK) and pharmacodynamics of MIV-711. Subjects were randomized into 3 groups using a computer-generated pseudo-random permutation procedure. Each group consisted of 9 subjects with at least 3 subjects of each gender per group and subjects participated in 1–2 treatment periods. There was a minimum of 10 days between dose escalations and a minimum of 20 days between dosing occasions for individual subjects. For each subsequent dosing occasion, the decision to escalate the dose to the next level was taken after a thorough review of the safety, tolerability and PK data. In each treatment period, 7 subjects received MIV-711 and 2 received placebo (comprising of 1 subject of each gender). Dosing occurred on the morning of Day 1 following an overnight fast and subjects were kept in the fasted state until approximately 4.5 h after dosing. MIV-711 was given as a combination of 10 or 40 mg hard gelatin capsules, while placebo was given in similar capsules of identical appearance.\nStandard safety assessments were performed throughout the study and included physical examination, vital signs, 12-lead electrocardiogram (ECG), continuous ECG Holter monitoring, hematology, biochemistry, urinalysis and adverse event monitoring.\nIn the nonclinical studies, two-way ANOVA was used to assess the effects of MIV-711 on plasma CTX-I. Pearson’s correlation was used when comparing plasma exposure of MIV-711 with inhibitory effects on CTX-I. Student’s unpaired t test was used when assessing the effect of MIV-711 on urine biomarkers. In the clinical study, PK parameters were summarized by dose level using descriptive statistics. The dose proportionality for AUC and Cmax was assessed by using a power model with determination of the linear regression slope with a 95% confidence interval. Change in CTX-I from baseline at 24 h after dose was calculated by dose level and summarized using descriptive statistics. In addition, the 95% confidence interval for the difference between each MIV-711 group and the placebo group for these variables was calculated by dose level. Pearson’s correlation was used when comparing plasma exposure of MIV-711 with inhibitory effects on CTX-I. A time-matched and placebo-corrected approach was used to evaluate the effects of MIV-711 on the QTcF interval from the Holter ECG recordings. The change-from-baseline QTcF at post-dose time points was analyzed using an ANCOVA model including the treatment, time (categorical), and treatment-by-time interaction as fixed effects, baseline QTcF as a covariate, and subject as random effect. A p value < 0.05 was considered statistically significant. Data are expressed as mean ± SEM."}, "plasma CTX-I": {"tested_on": "plasma CTX-I", "assay": "Monkey plasma CTX-I, single oral dose", "type": "in vivo, cynomolgus monkeys (Macaca fascicularis)", "procedure": "Eight cynomolgus monkeys (Macaca fascicularis) were used for measuring plasma levels of MIV-711 and CTX-I after a single dose. The animals were healthy young males, approximately 2–4 years old and weighing 3–4 kg. Experiments were performed at Covance Ltd (Harrogate, UK). The monkeys were used over an extended period of time (up to a year) and several cathepsin K inhibitors were evaluated during this time. At least 1 week was allowed for washout in between experiments. This was not believed to affect the results with MIV-711, and vehicle controls were run on a regular basis when appropriate. Each animal received at least one dose of MIV-711 and one dose of vehicle with at least 1 week of washout in between treatments.\nIn single dose experiments, animals were dosed with vehicle or MIV-711 (3–30 µmol/kg) via oral gavage at a dose volume of 4 mL/kg between 7:30 and 9:00 a.m. Blood samples were collected at baseline, 30 min, 1, 2, 4, 8, 12, 24 and 48 h after dose from the femoral vein and transferred into lithium heparin anticoagulant tubes. The samples were centrifuged and the two aliquots of the resultant plasma were frozen at − 70 °C. All samples were processed and stored within 30 min of collection. The aliquots were used to determine the MIV-711 concentration and CTX-I levels, respectively. [drawing 1]\nSince the concentration of MIV-711 was measured in each animal it was possible to relate the MIV-711 exposure over 24 h to the % CTX-I inhibition over 24 h in each animal.\nThe quantification of CTX-I in monkey plasma samples and human serum samples was performed using a commercially available kit (Serum CrossLaps ELISA, IDS Nordic, Herlev, Denmark). The levels of CTX-I in monkey urine samples were measured using a commercially available kit (Urine BETA CrossLaps ELISA, IDS Nordic). The quantification of NTX-I in monkey samples was performed using a commercially available kit (Osteomark NTx Urine, Wampole Laboratories, Inc, Princeton, USA). Urinary levels of CTX-II in monkey samples were measured using a commercially available kit (Urine CrossLaps EIA, IDS Nordic). The concentrations of biomarkers in the urine samples were corrected for creatinine concentrations. The creatinine levels in urine were determined at Swedish University of Agricultural Sciences, using the enzymatic assay (cat no. 8L24-01) on the Abbott system Architect c4000."}, "[2]": {"settings": "single ascending doses 20–600 mg"}}, "data": [{"smiles": "C#C[C@@H]1CN(C(=O)[C@H](CC(C)C)NC(=O)c2ccc(-c3nc(N4CCN(C)CC4)sc3F)cc2)[C@@H]2C(=O)CO[C@H]12", "note": "[MIV-711]", "values": [{"measurement": "Adverse events considered possibly related to treatment", "setting": "[1]; 6/35, all mild", "result": 17, "unit": "%"}, {"measurement": "Subjects reporting adverse events", "setting": "[1]; 11/35 MIV-711-treated subjects", "result": 31, "unit": "%"}, {"measurement": "Upper confidence interval of the projected QTcF effect at the highest observed plasma levels", "setting": "[1]; maximum dose of 600 mg", "result": "below 10 ms"}, {"measurement": "Safety and tolerability", "setting": "[1]; [2]", "result": "safe and well-tolerated"}, {"measurement": "Serious adverse events", "setting": "[1]; [2]", "result": "no serious adverse events"}, {"measurement": "Effect on plasma CTX-I versus vehicle", "setting": "plasma CTX-I; 3 µmol/kg p.o. (p > 0.05)", "result": "did not differ significantly vs. vehicle"}, {"measurement": "Effect on plasma CTX-I versus vehicle", "setting": "plasma CTX-I; 10 µmol/kg p.o., between 8 and 24 h post-dose (p < 0.05)", "result": "statistically significant versus vehicle"}, {"measurement": "Exposure required for 50% reduction of CTX-I at 24 h post dose", "setting": "plasma CTX-I; AUC0–24h", "result": 1.5, "unit": "µmol/L/h"}, {"measurement": "Reduction of plasma CTX-I compared to baseline", "setting": "plasma CTX-I; highest dose (30 µmol/kg p.o.), 24 h post-dose", "result": 57, "unit": "%"}]}]}
